For this experiment, the target named is YKL-40 (Homo sapiens (Human), UniProt P36222). Nature of the experiment: YKL-40:4 assay, competitive chitin binding site AlphaScreen. As to conditions: competition with biotinylated compound 4 (20 nM), YKL-40-histag 2.5 nM. In general terms: Alpha assays give light when donor and acceptor beads are brought close together.

Structures can show the parent of a compound that is named as a salt.

Among the data in patent US20230278996A1, “YKL-40 INHIBITORS AND THEIR THERAPEUTIC APPLICATIONS” (Molecure S.A., priority 2022, published 2023) are IC50 values, retold here.

YKL-40, sequence (P36222 22-383): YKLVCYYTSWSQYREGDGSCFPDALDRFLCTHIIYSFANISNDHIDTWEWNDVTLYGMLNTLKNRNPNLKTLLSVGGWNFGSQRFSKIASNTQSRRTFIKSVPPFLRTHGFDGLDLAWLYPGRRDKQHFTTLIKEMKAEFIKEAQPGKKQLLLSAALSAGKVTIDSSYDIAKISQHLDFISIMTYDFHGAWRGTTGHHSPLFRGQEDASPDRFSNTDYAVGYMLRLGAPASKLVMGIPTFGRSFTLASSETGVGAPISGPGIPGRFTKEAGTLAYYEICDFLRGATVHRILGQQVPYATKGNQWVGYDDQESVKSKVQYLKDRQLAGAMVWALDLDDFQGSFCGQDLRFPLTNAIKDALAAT

Consider `C[C@H](O)CN1C[C@H](Cc2ccc(Cl)cc2)N(C2CCN(c3ccccn3)CC2)C[C@@H]1C` [compound 104, (S)-1-((2S,5S)-5-(4-chlorobenzyl)-2-methyl-4-(1-(pyridin-2-yl)piperidin-4-yl)piperazin-1-yl)propan-2-ol 2,2,2-trifluoroacetate], for which the IC50 was < 100 nM. For `CC(=O)NC[C@H]1CN(C2CCN(c3ncccn3)CC2)[C@@H](Cc2ccc(Cl)cc2)CO1` [compound 75, N-(((2S,5S)-5-(4-chlorobenzyl)-4-(1-(pyrimidin-2-yl)piperidin-4-yl)morpholin-2-yl)methyl)acetamide 2,2,2-trifluoroacetate], the IC50 fell in the range of 100 to 1000 nM.

With `C[C@H]1CN(C2CCN(c3noc(=O)[nH]3)CC2)[C@@H](Cc2ccc(Cl)cc2)CO1` [compound 165, 3-(4-((2S,5S)-5-(4-chlorobenzyl)-2-methylmorpholino)piperidin-1-yl)-1,2,4-oxadiazol-5(4H)-one 2,2,2-trifluoroacetate], the IC50 is > 100000 nM. For the molecule `C[C@H]1CN(C2CCN(c3ncc(C(F)(F)F)o3)CC2)[C@@H](Cc2ccc(Cl)cc2)CO1` [compound 168, (2S,5S)-5-(4-chlorobenzyl)-2-methyl-4-(1-(5-(trifluoromethyl)oxazol-2-yl)piperidin-4-yl)morpholine 2,2,2-trifluoroacetate], the IC50 was > 100000 nM. In the case of `C[C@H]1CN(C2CCN(c3ncnc(N)n3)CC2)[C@@H](Cc2ccc(Cl)cc2)CO1` [compound 174, 4-(4-((2S,5S)-5-(4-chlorobenzyl)-2-methylmorpholino)piperidin-1-yl)-1,3,5-triazin-2-amine 2,2,2-trifluoroacetate], the IC50 is > 100000 nM. To `CO[C@@H]1CN(c2cc(Cl)ccn2)CC[C@@H]1N1C[C@H](C)OC[C@@H]1Cc1ccc(Cl)cc1` [compound 59, (2S,5S)-5-(4-chlorobenzyl)-4-((3R,4S)-1-(4-chloropyridin-2-yl)-3-methoxypiperidin-4-yl)-2-methylmorpholine 2,2,2-trifluoroacetate] belongs 1000 to 10000 nM; to `C[C@H]1CN(C2CCN(c3cc(Br)ccn3)CC2)[C@@H](Cc2ccc(Cl)cc2)CO1` [compound 113, (2S,5S)-4-(1-(4-bromopyridin-2-yl)piperidin-4-yl)-5-(4-chlorobenzyl)-2-methylmorpholine 2,2,2-trifluoroacetate], 100 to 1000 nM.

Take `C[C@H]1CN(C2CCN(c3cc(C(F)(F)F)ccn3)CC2)[C@@H](Cc2ccc(Cl)cc2)CO1` [Example 20, (2S,5S)-5-(4-chlorobenzyl)-2-methyl-4-(1-(4-(trifluoromethyl)pyridin-2-yl)piperidin-4-yl)morpholine 2,2,2-trifluoroacetate]: the IC50 lay in the range of 1000 to 10000 nM. To `COC1(C)CCN(C2CCN(c3ccccn3)CC2)[C@@H](Cc2ccc(Cl)cc2)C1` (stereo partly drawn) [compound 91, (2S)-2-(4-chlorobenzyl)-4-methoxy-4-methyl-1′-(pyridin-2-yl)-1,4′-bipiperidine 2,2,2-trifluoroacetate] belongs < 100 nM; to `Cc1ncnc(N2CCC(N3C[C@H](C)OC[C@@H]3Cc3ccc(Cl)cc3)CC2)n1` [compound 172, (2S,5S)-5-(4-chlorobenzyl)-2-methyl-4-(1-(4-methyl-1,3,5-triazin-2-yl)piperidin-4-yl)morpholine 2,2,2-trifluoroacetate], > 100000 nM; to `COC(C)(C)CN1C[C@H](Cc2ccc(Cl)cc2)N(C2CCN(c3ccccn3)CC2)C[C@@H]1CC(C)C` [compound 100, (2S,5S)-2-(4-chlorobenzyl)-5-isobutyl-4-(2-methoxy-2-methylpropyl)-1-(1-(pyridin-2-yl)piperidin-4-yl)piperazine 2,2,2-trifluoroacetate], 1000 to 10000 nM. With `O=C1NCCN(C2CCN(c3ccccn3)CC2)[C@H]1Cc1ccc(Cl)cc1` [compound 149, (S)-3-(4-chlorobenzyl)-4-(1-(pyridin-2-yl)piperidin-4-yl)piperazin-2-one 2,2,2-trifluoroacetate] the figure was > 100000 nM; with `C[C@H]1CN(C2CCN(c3ncccc3Cl)CC2)[C@@H](Cc2ccc(Cl)cc2)CO1` [Example 23, (2S,5S)-5-(4-chlorobenzyl)-4-(1-(3-chloropyridin-2-yl)piperidin-4-yl)-2-methylmorpholine 2,2,2-trifluoroacetate], 1000 to 10000 nM; with `C[C@H]1CN(C2CCN(c3ncnc(O)n3)CC2)[C@@H](Cc2ccc(Cl)cc2)CO1` [compound 170, 4-(4-((2S,5S)-5-(4-chlorobenzyl)-2-methylmorpholino)piperidin-1-yl)-1,3,5-triazin-2-ol 2,2,2-trifluoroacetate], > 100000 nM. Regarding `CN1C[C@H](Cc2ccc(Cl)cc2)N(C2CCN(c3cc(Cl)ccn3)CC2)C[C@@H]1COc1ccc2ccccc2c1` [compound 84, (2S,5R)-2-(4-chlorobenzyl)-1-(1-(4-chloropyridin-2-yl)piperidin-4-yl)-4-methyl-5-((naphthalen-2-yloxy)methyl)piperazine 2,2,2-trifluoroacetate], the IC50 is > 100000 nM. With `C[C@@H](O)[C@H]1CN(C2CCN(c3ccccn3)CC2)[C@@H](Cc2ccc(Cl)cc2)CN1C` [compound 110, (R)-1-((2R,5S)-5-(4-chlorobenzyl)-1-methyl-4-(1-(pyridin-2-yl)piperidin-4-yl)piperazin-2-yl)ethan-1-ol] the figure was < 100 nM; with `COC(=O)c1cccnc1N1CCC(N2C[C@H](C)OC[C@@H]2Cc2ccc(Cl)cc2)CC1` [compound 117, methyl 2-(4-((2S,5S)-5-(4-chlorobenzyl)-2-methylmorpholino)piperidin-1-yl)nicotinate 2,2,2-trifluoroacetate], > 100000 nM. With `C[C@H](O)[C@H]1CN(C2CCN(c3ccccn3)CC2)[C@@H](Cc2ccc(Cl)cc2)CN1C` [compound 105, (S)-1-((2R,5S)-5-(4-chlorobenzyl)-1-methyl-4-(1-(pyridin-2-yl)piperidin-4-yl)piperazin-2-yl)ethan-1-ol 2,2,2-trifluoroacetate] the figure was < 100 nM. With `CC[C@H]1CN(C2CCN(c3ccccn3)CC2)[C@@H](Cc2ccc(Cl)cc2)CN1CC(C)C` [compound 94, (2S,5S)-2-(4-chlorobenzyl)-5-ethyl-4-isobutyl-1-(1-(pyridin-2-yl)piperidin-4-yl)piperazine 2,2,2-trifluoroacetate] the figure was 1000 to 10000 nM; with `C[C@H]1CN(C2CCN(c3ccccn3)C(=O)C2)[C@@H](Cc2ccc(Cl)cc2)CO1` (stereo partly drawn) [compound 85, 4-((2S,5S)-5-(4-chlorobenzyl)-2-methylmorpholino)-1-(pyridin-2-yl)piperidin-2-one 2,2,2-trifluoroacetate], 10000 to 100000 nM; with `C[C@H]1CN(C2CCN(c3cc(F)ncn3)CC2)[C@@H](Cc2ccc(Cl)cc2)CO1` [Example 24, (2S,5S)-5-(4-chlorobenzyl)-4-(1-(6-fluoropyrimidin-4-yl)piperidin-4-yl)-2-methylmorpholine 2,2,2-trifluoroacetate], > 100000 nM.

`Clc1ccc(C[C@H]2COCCN2C2CCN(c3ccccn3)CC2)cc1` [compound 88, (S)-3-(4-chlorobenzyl)-4-(1-(pyridin-2-yl)piperidin-4-yl)morpholine 2,2,2-trifluoroacetate] gave an IC50 of 100 to 1000 nM. To `O=C1CNC(=O)N1C[C@H]1CN(C2CCN(c3ncccn3)CC2)[C@@H](Cc2ccc(Cl)cc2)CO1` [compound 78, 3-(((2R,5S)-5-(4-chlorobenzyl)-4-(1-(pyrimidin-2-yl)piperidin-4-yl)morpholin-2-yl)methyl)imidazolidine-2,4-dione 2,2,2-trifluoroacetate] belongs 1000 to 10000 nM. On to `C[C@H]1CN(C2CCN(c3ccccc3)CC2)[C@@H](Cc2ccc(Cl)cc2)CO1` [Example 37, (2S,5S)-5-(4-chlorobenzyl)-2-methyl-4-(1-phenylpiperidin-4-yl)morpholine dihydrochloride], for which the IC50 was > 100000 nM. To `Cc1ccnc(N2CCC(N3C[C@@H]4C[C@H](O)CN4C[C@@H]3Cc3ccc(Cl)cc3)CC2)n1` [Example 43, (3S,7S,8aS)-3-(4-chlorobenzyl)-2-(1-(4-methylpyrimidin-2-yl)piperidin-4-yl)octahydropyrrolo[1,2-α]pyrazin-7-ol 2,2,2-trifluoroacetate] belongs 100 to 1000 nM.

`C[C@H]1CN(c2ccc(-c3ccccn3)cc2)[C@@H](Cc2ccc(Cl)cc2)CO1` [compound 159, (2S,5S)-5-(4-chlorobenzyl)-2-methyl-4-(4-(pyridin-2-yl)phenyl)morpholine hydrochloride] displayed an IC50 of 100 to 1000 nM.

Consider `C[C@H]1CN(C2CCN(c3ccccc3F)CC2)[C@@H](Cc2ccc(Cl)cc2)CO1` [compound 126, (2S,5S)-5-(4-chlorobenzyl)-4-(1-(2-fluorophenyl)piperidin-4-yl)-2-methylmorpholine 2,2,2-trifluoroacetate], for which the IC50 is > 100000 nM.

`C[C@H]1CN(C2CCN(c3ccccn3)CC2)[C@@H](Cc2ccc(Cl)cc2)CN1CC(=O)N(C)C` [compound 101, 2-((2S,5S)-5-(4-chlorobenzyl)-2-methyl-4-(1-(pyridin-2-yl)piperidin-4-yl)piperazin-1-yl)-N,N-dimethylacetamide] gave an IC50 of 100 to 1000 nM. For `C[C@H]1CN(C2CCN(c3ncc(F)cn3)CC2)[C@@H](Cc2ccc(Cl)cc2)CO1` [compound 46, (2S,5S)-5-(4-chlorobenzyl)-4-(1-(5-fluoropyrimidin-2-yl)piperidin-4-yl)-2-methylmorpholine 2,2,2-trifluoroacetate], the IC50 was in the range of 1000 to 10000 nM. Consider `O[C@H]1CCN(C[C@H]2CN(C3CCN(c4ncccn4)CC3)[C@@H](Cc3ccc(Cl)cc3)CO2)C1` [compound 74, (S)-1-(((2S,5S)-5-(4-chlorobenzyl)-4-(1-(pyrimidin-2-yl)piperidin-4-yl)morpholin-2-yl)methyl)pyrrolidin-3-ol 2,2,2-trifluoroacetate], for which the IC50 lay in the range of 1000 to 10000 nM. `CNC(=O)[C@H]1CN(C2CCN(c3ccccn3)CC2)[C@@H](Cc2ccc(Cl)cc2)CO1` [compound 154, (2R,5S)-5-(4-chlorobenzyl)-N-methyl-4-(1-(pyridin-2-yl)piperidin-4-yl)morpholine-2-carboxamide hydrochloride]: the IC50 is 100 to 1000 nM.

Usually IC50 stands for the concentration at which inhibition is half-maximal. A higher IC50 goes with weaker potency in that assay.
